Measurements published in the supplement of paper PMC10307832.

Assays:
Assay in all cases: relative viability (nuclei count vs DMSO), 5 days (fraction); higher = more cells survive
[1] = system: NCI-H1734
Outline: (§1)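 Lung cancer cell lines were pin-tool dosed in 1536-well plates on the day after seeding, with either a lone drug or a fixed anchor-drug dose plus five library-drug doses (not always all listed) in √10 steps. Nuclei were counted on 4× images after 5 days. Relative viability is the ratio of treated-well to vehicle-well nuclei counts, with each value a median of duplicate plates.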

[2] = system: NCI-H1993
Outline: as §1

[3] = system: NCI-H2342
Outline: as §1

[4] = system: NCI-H1355
Outline: as §1

[5] = system: NCI-H1915
Outline: as §1

[6] = system: LCLC-103H
Outline: as §1

[7] = system: NCI-H1975
Outline: as §1

[8] = system: NCI-H2347
Outline: as §1

[9] = system: HCC-827
Outline: as §1

[10] = system: NCI-H23
Outline: as §1

[11] = system: NCI-H650
Outline: as §1

[12] = system: NCI-H1755
Outline: as §1

[13] = system: HCC-366
Outline: as §1

[14] = system: RERF-LC-KJ
Outline: as §1

[15] = system: NCI-H2170
Outline: as §1

[16] = system: NCI-H1792
Outline: as §1

[17] = system: A-427
Outline: as §1

[18] = system: LC-2-ad
Outline: as §1

`CCNC(=O)c1noc(-c2cc(C(C)C)c(O)cc2O)c1-c1ccc(CN2CCOCC2)cc1` [Luminespib] + NC(=O)Nc1cc(-c2cccc(F)c2)sc1C(=O)N[C@H]1CCCNC1 [AZD7762] (partner 0.2 µM) showed a relative viability ([1]; first compound 0.002 µM) of 0.516, a relative viability ([1]; first compound 0.006325 µM) of 0.497 and a relative viability ([1]; first compound 0.02 µM) of 0.28. For the same compound, the relative viability ([1]; first compound 0.06325 µM) was 0.0991, the relative viability ([1]; first compound 0.2 µM) was 0.124 and the relative viability ([2]; first compound 0.002 µM) was 0.759. The relative viability ([2]; first compound 0.006325 µM) was 0.772, the relative viability ([2]; first compound 0.02 µM) was 0.513 and the relative viability ([2]; first compound 0.06325 µM) was 0.247. It also gave a relative viability ([2]; first compound 0.2 µM) of 0.237, a relative viability ([3]; first compound 0.002 µM) of 0.472 and a relative viability ([3]; first compound 0.006325 µM) of 0.434. It also gave a relative viability ([3]; first compound 0.02 µM) of 0.371, a relative viability ([3]; first compound 0.06325 µM) of 0.492 and a relative viability ([3]; first compound 0.2 µM) of 0.26. It also gave a relative viability ([4]; first compound 0.002 µM) of 0.822, a relative viability ([4]; first compound 0.006325 µM) of 0.693 and a relative viability ([4]; first compound 0.02 µM) of 0.526. The relative viability ([4]; first compound 0.06325 µM) was 0.324, the relative viability ([4]; first compound 0.2 µM) was 0.145 and the relative viability ([5]; first compound 0.002 µM) was 0.662. For the same compound, the relative viability ([5]; first compound 0.006325 µM) was 0.674, the relative viability ([5]; first compound 0.02 µM) was 0.627 and the relative viability ([5]; first compound 0.06325 µM) was 0.473. It also gave a relative viability ([5]; first compound 0.2 µM) of 0.0604, a relative viability ([6]; first compound 0.002 µM) of 0.934 and a relative viability ([6]; first compound 0.006325 µM) of 0.699. For the same compound, the relative viability ([6]; first compound 0.02 µM) was 0.639, the relative viability ([6]; first compound 0.06325 µM) was 0.739 and the relative viability ([6]; first compound 0.2 µM) was 0.726. The relative viability ([7]; first compound 0.002 µM) was 0.686, the relative viability ([7]; first compound 0.006325 µM) was 0.735 and the relative viability ([7]; first compound 0.02 µM) was 0.348. The relative viability ([7]; first compound 0.06325 µM) was 0.167, the relative viability ([7]; first compound 0.2 µM) was 0.165 and the relative viability ([8]; first compound 0.002 µM) was 0.844. It also gave a relative viability ([8]; first compound 0.006325 µM) of 0.719, a relative viability ([8]; first compound 0.02 µM) of 0.614 and a relative viability ([8]; first compound 0.06325 µM) of 0.469. It also gave a relative viability ([8]; first compound 0.2 µM) of 0.202, a relative viability ([9]; first compound 0.002 µM) of 0.162 and a relative viability ([9]; first compound 0.006325 µM) of 0.234. For the same compound, the relative viability ([9]; first compound 0.02 µM) was 0.16, the relative viability ([9]; first compound 0.06325 µM) was 0.124 and the relative viability ([9]; first compound 0.2 µM) was 0.0952. It also gave a relative viability ([10]; first compound 0.002 µM) of 0.258, a relative viability ([10]; first compound 0.006325 µM) of 0.247 and a relative viability ([10]; first compound 0.02 µM) of 0.259. It also gave a relative viability ([10]; first compound 0.06325 µM) of 0.133, a relative viability ([10]; first compound 0.2 µM) of 0.11 and a relative viability ([11]; first compound 0.002 µM) of 0.93. The relative viability ([11]; first compound 0.006325 µM) was 0.958, the relative viability ([11]; first compound 0.02 µM) was 0.587 and the relative viability ([11]; first compound 0.06325 µM) was 0.139. It also gave a relative viability ([11]; first compound 0.2 µM) of 0.0919, a relative viability ([12]; first compound 0.002 µM) of 0.429 and a relative viability ([12]; first compound 0.006325 µM) of 0.355. For the same compound, the relative viability ([12]; first compound 0.02 µM) was 0.352, the relative viability ([12]; first compound 0.06325 µM) was 0.245 and the relative viability ([12]; first compound 0.2 µM) was 0.161. The relative viability ([13]; first compound 0.002 µM) was 0.392, the relative viability ([13]; first compound 0.006325 µM) was 0.302 and the relative viability ([13]; first compound 0.02 µM) was 0.331. For the same compound, the relative viability ([13]; first compound 0.06325 µM) was 0.0393, the relative viability ([13]; first compound 0.2 µM) was 0.0222 and the relative viability ([14]; first compound 0.002 µM) was 0.936. The relative viability ([14]; first compound 0.006325 µM) was 0.998, the relative viability ([14]; first compound 0.02 µM) was 0.683 and the relative viability ([14]; first compound 0.06325 µM) was 0.533. For the same compound, the relative viability ([14]; first compound 0.2 µM) was 0.178, the relative viability ([15]; first compound 0.002 µM) was 0.868 and the relative viability ([15]; first compound 0.006325 µM) was 0.851. The relative viability ([15]; first compound 0.06325 µM) was 0.118, the relative viability ([15]; first compound 0.2 µM) was 0.104 and the relative viability ([16]; first compound 0.002 µM) was 0.797. For the same compound, the relative viability ([16]; first compound 0.006325 µM) was 0.519, the relative viability ([16]; first compound 0.02 µM) was 0.146 and the relative viability ([16]; first compound 0.06325 µM) was 0.0335. The relative viability ([16]; first compound 0.2 µM) was 0.0361, the relative viability ([17]; first compound 0.002 µM) was 0.865 and the relative viability ([17]; first compound 0.006325 µM) was 0.722. For the same compound, the relative viability ([17]; first compound 0.02 µM) was 0.557, the relative viability ([17]; first compound 0.06325 µM) was 0.258 and the relative viability ([17]; first compound 0.2 µM) was 0.205. For the same compound, the relative viability ([18]; first compound 0.002 µM) was 0.802, the relative viability ([18]; first compound 0.006325 µM) was 0.854 and the relative viability ([18]; first compound 0.02 µM) was 0.833. It also gave a relative viability ([18]; first compound 0.06325 µM) of 0.146 and a relative viability ([18]; first compound 0.2 µM) of 0.16.
